The results in this text go back to patent US12440475B2, “Hodgkin lymphoma therapy” (priority 2016, dated 2025).

This data set is described as follows: Histopathology of non-tumour findings (lung, spleen) in xenografted NSG mice. The data set is classed as in vivo. Also on record: key: 0: within physiological limits; 1: minimal; 2: mild; 3: moderate; 4: marked; 5: severe. The method, then: Organs were fixed in 4% PFA, trimmed and post-fixed in 70° ethanol. They were then briefly processed using a vacuum inclusion processor and paraffin blocks were prepared. Five micrometer-thick sections were cut from these blocks and the resulting sections were stained with hemotoxylin-eosine (H&E) for histopathological analysis. In addition, IHC was carried out on of the totality of liver and spleen specimens for confirmation of the spread of engrafted cells. The search for single cells or small groups of grafted Hodgkin lymphoma cells was performed using an anti-CD30 antibody (DAKO, France; 1:40, EDTA pH9 pre-treatment) and the Ventana Discovery XT IHC system. Apoptosis and tumour necrosis were analysed.
Microscopic findings were assigned a severity score based upon the following scale: “0”=within physiological limits, “1”=minimal, “2”=mild, “3”=moderate, “4”=marked, “5”=severe. This severity score was attributed according to the size and number of observed lesions.

As for `Cn1c(CCCCCCC(=O)NO)nc2cc(N(CCCl)CCCl)ccc21` [EDO-S101], the “Lung, alveolar histiocytosis (score per animal)” value by setting is: (1*60 mg/kg) 1; (1*80 mg/kg) 1. The “Spleen, red pulp activation, diffuse (score per animal)” value (2*60 mg/kg) was 3.
